Reference: patent US11400269B2, “Using alternating electric fields to increase permeability of the blood brain barrier” (Novocure GmbH, priority 2018, dated 2022)

Experiments:
rat brain (BBB) [1] = assay: Evans Blue accumulation in rat brain after alternating electric fields; type: in vivo
Excerpt: A set of in vivo experiments on rats was also run to quantify the increase in vessel permeability caused by exposure to the alternating electric fields. These experiments used Evans Blue (EB) dye, which is an azo dye that has a very high affinity for serum albumin (molecule size ˜69 kDa). Because of its large molecule size, serum albumin will ordinarily not be able to get past the BBB.
This was accomplished by shaving each rat's head, positioning a first pair of capacitively coupled electrodes on the top and bottom of the rat's head, and positioning a second pair of capacitively coupled electrodes on the left and right sides of the rat's head. A 100 kHz AC voltage was then applied between the top and bottom electrodes for 1 second, followed by a 100 kHz AC voltage applied between the right and left electrodes for 1 second, in a repeating sequence.
Under the conditions indicated in Table 1 and for the times indicated on Table 1, EB was injected intravenously into the tail vein under anesthesia (Once injected, EB immediately binds to Albumin), and the EB was allowed to circulate for 2 hours in all cases. The following steps were then performed: (a) intracardiac perfusion with saline; (b) brains are sliced in four pieces with a brain slicer; (c) pieces were photographed to localize staining and weighted; (d) EB extraction after tissue homogenization with TCA 50% (1:3) and centrifuge and (e) EB quantification at 610 nm. Results are given as μg EB per g tissue.
During the experiment, two animals from group 2 and one animal from group 4 were excluded (disrupted treatment, failure to inject EB into the tail vein). There were no differences between the animals treated with alternating electric fields (groups 1 and 2) and therefore these animals were grouped together. Similarly, there were no differences between sham heat and control animals (groups 3 and 4) and therefore these animals were grouped together.
EB accumulation in these four specific sections was then measured. In addition, a computer simulation was performed to determine the field strength in each of these four sections. […]

rat brain (BBB) [2] = assay: DCE-MRI contrast agent accumulation in rat brain; type: in vivo
Protocol: Yet another set of in vivo experiments was performed using Dynamic Contrast Enhanced MRI (DCE-MRI) with intravenous injection of Gadolinium contrast agent (Gd-DTPA, Magnetol, MW 547). In these experiments, test rats were treated with 100 kHz alternating electric fields for 72 h, and control rats were not treated with alternating electric fields for the same period of time. After this 72 h period, the alternating electric field was turned off, the rats were anesthetized, and a series of 60 T1w MRI scans (each of the scans having a duration of 28 seconds) was acquired. The gadolinium contrast agent was injected into the rat's tail vein during the 7th of these 60 scans.
The image analysis for each rat included (1) determining a baseline for each voxel by calculating the mean of the first six T1w MRI scans for each voxel (i.e., the scans prior to the injection of the gadolinium); (2) computing voxel by voxel, the percent signal change (i.e., gadolinium accumulation) over time relative to the baseline; (3) segmenting the brain into anterior, middle, and posterior segments; (4) generating for each of the three segments the mean percent signal change with respect to the baseline over all the voxels in the respective segment and then (5) averaging 4 consecutive time points (i.e. 4 scans) together. Finally, the data from all of the rats within any given group were averaged together. […]

[3] = 100 kHz fields 72 h vs sham heat/control, EB i.v., circulated 2 hours, measured as μg EB per g tissue, FIG. 5

average EB accumulation in the rat brain, averaged over all four sections 1-4 (rat brain (BBB) [1]; 100 kHz fields 72 hours vs sham heat/control, p<0.05, FIG. 6)	EB accumulation, sections 1, 2 (frontal cerebrum) (rat brain (BBB) [1]; [3])	SMILES	EB accumulation, more posterior sections (3, 4) (rat brain (BBB) [1]; [3])	contrast agent accumulation in the brain tissue (percent signal change) (rat brain (BBB) [2]; 100 kHz fields 72 h (n=6) vs control rats (n=3), i.v., FIG. 7)	contrast agent accumulation in the brain tissue (percent signal change) after recovery (rat brain (BBB) [2]; 72 hours fields followed by 96 hours without fields (n=7) vs control+96 h (n=3))
higher accumulation	statistically significant increase	Cc1cc(-c2ccc(/N=N/c3ccc4c(S(=O)(=O)O)cc(S(=O)(=O)O)c(N)c4c3O)c(C)c2)ccc1/N=N/c1ccc2c(S(=O)(=O)O)cc(S(=O)(=O)O)c(N)c2c1O [EB, Evans Blue]	smaller increase (that was not statistically significant)	–	–
–	–	O=C([O-])CN(CCN(CC(=O)[O-])CC(=O)O)CCN(CC(=O)[O-])CC(=O)O.[Gd+3] [contrast agent, Gd-DTPA]	–	significantly higher	not significantly different
